Measured values published in US20200331904A1, “3-AMINO-[1,2,4]-TRIAZOLE DERIVATIVES AND THEIR USE FOR CONTROLLING UNDESIRED PLANT GROWTH” (Bayer CropScience Aktiengesellschaft, priority 2017, published 2020).

Assays:
Type in all cases: in vivo
Echinochloa crus-galli = experiment: Pre-emergence herbicidal efficacy, ECHCG; settings: Table B1, application rate 320 g/ha, scored visually after about 3 weeks vs untreated controls
Description: (§1) C.1 Pre-Emergence Herbicidal Action and Crop Plant Compatibility
(§2) Seeds of monocotyledonous and dicotyledonous weed plants and crop plants are placed in plastic or organic planting pots and covered with soil. The compounds of the invention, formulated in the form of wettable powders (WP) or as emulsion concentrates (EC), are then applied onto the surface of the covering soil as aqueous suspension or emulsion with addition of 0.5% additive at a water application rate of […] (converted). After the treatment, the pots are placed in a greenhouse and kept under good growth conditions for the trial plants. After about 3 weeks, the effect of the preparations is scored visually in comparison with untreated controls as percentages. For example, 100% activity=the plants have died, 0% activity=like control plants.
(§3) ABUTH: Abutilon theophrasti ALOMY: Alopecurus myosuroides AMARE: Amaranthus retroflexus AVEFA: Avena fatua CYPES: Cyperus esculentus ECHCG: Echinochloa crus-galli LOLMU: Lolium multiflorum MATIN: Matricaria inodora PHBPU: Ipomoea purpurea POLCO: Polygonum convolvulus SETVI: Setaria viridis STEME: Stellaria media VERPE: Veronica persica VTOTR: Viola tricolor

Lolium rigidum = experiment: Pre-emergence herbicidal efficacy, LOLRI; settings: Table B1, application rate 320 g/ha, scored visually after about 3 weeks vs untreated controls
Description: C.1 Pre-Emergence Herbicidal Action and Crop Plant Compatibility Seeds of monocotyledonous and dicotyledonous weed plants and crop plants are placed in plastic or organic planting pots and covered with soil. The compounds of the invention, formulated in the form of wettable powders (WP) or as emulsion concentrates (EC), are then applied onto the surface of the covering soil as aqueous suspension or emulsion with addition of 0.5% additive at a water application rate of […] (converted). After the treatment, the pots are placed in a greenhouse and kept under good growth conditions for the trial plants. After about 3 weeks, the effect of the preparations is scored visually in comparison with untreated controls as percentages. For example, 100% activity=the plants have died, 0% activity=like control plants. […] Here, for example, compound Nos. I-214 and I-196, when applied pre-emergence, have very good activity (80% to 100% herbicidal activity) against harmful plants such as Abutilon theophrasti, Amaranthus retroflexus, Echinochloa crus-galli, Lolium rigidum, Matricaria inodora, Polygonum convolvulus, Setaria viridis, Stellaria media, Veronica persica and Viola tricolor at an application rate of 0.32 kg of active substance or less per hectare. At the same time, some of the compounds according to the invention leave Gramineae crops such as barley, wheat, rye, millet/sorghum, corn, rice or sugar cane virtually undamaged when applied pre-emergence, even at high active compound dosages. In addition, some substances are also harmless to dicotyledonous crops such as soya, cotton, oilseed rape or sugar beet.

Setaria viridis = experiment: Pre-emergence herbicidal efficacy, SETVI; settings: Table B1, application rate 320 g/ha, scored visually after about 3 weeks vs untreated controls
Description: as §1, §2, §3

Abutilon theophrasti = experiment: Pre-emergence herbicidal efficacy, ABUTH; settings: Table B1, application rate 320 g/ha, scored visually after about 3 weeks vs untreated controls
Description: as §1, §2, §3

Amaranthus retroflexus = experiment: Pre-emergence herbicidal efficacy, AMARE; settings: Table B1, application rate 320 g/ha, scored visually after about 3 weeks vs untreated controls
Description: as §1, §2, §3

Matricaria inodora = experiment: Pre-emergence herbicidal efficacy, MATIN
Description: as §1, §2, §3

Polygonum convolvulus = experiment: Pre-emergence herbicidal efficacy, POLCO; settings: Table B1, application rate 320 g/ha, scored visually after about 3 weeks vs untreated controls
Description: as §1, §2, §3

Stellaria media = experiment: Pre-emergence herbicidal efficacy, STEME
Description: as §1, §2, §3

Viola tricolor = experiment: Pre-emergence herbicidal efficacy, VIOTR
Description: as §1, §2, §3

Veronica persica = experiment: Pre-emergence herbicidal efficacy, VERPE; settings: Table B1, application rate 320 g/ha, scored visually after about 3 weeks vs untreated controls
Description: as §1, §2, §3

[1] = Table B1, application rate 320 g/ha, scored visually after about 3 weeks vs untreated controls
[2] = application rate 320 g/ha, scored visually after about 3 weeks

Compound	Herbicidal efficacy against ECHCG (Echinochloa crus-galli)	Herbicidal efficacy against LOLRI (Lolium rigidum)	Herbicidal efficacy against SETVI (Setaria viridis)	Herbicidal efficacy against ABUTH (Abutilon theophrasti)	Herbicidal efficacy against AMARE (Amaranthus retroflexus)	Herbicidal efficacy against MATIN (Matricaria inodora; [1])	Herbicidal efficacy against POLCO (Polygonum convolvulus)	Herbicidal efficacy against STEME (Stellaria media; [1])	Herbicidal efficacy against VIOTR (Viola tricolor; [1])	Herbicidal efficacy against VERPE (Veronica persica)	Herbicidal efficacy against MATIN (Matricaria inodora; [2])	Herbicidal efficacy against STEME (Stellaria media; [2])	Herbicidal efficacy against VIOTR (Viola tricolor; [2])
Cc1ccc2c(c1)C(Nc1nc3n(n1)CCN(C(C)C)C3)C(C)C2 (centres unmarked) [Example I-152]	100%	100%	100%	100%	100%	100%	100%	100%	100%	100%	–	–	–
Cc1ccc2c(c1)C(Nc1nc3n(n1)CCN(C(=O)C1CC1)C3)C(C)C2 (centres unmarked) [Example I-167]	100%	100%	100%	100%	100%	100%	100%	100%	100%	100%	–	–	–
Cc1ccc2c(c1)C(Nc1nc3n(n1)CCN(C(=O)c1ccc(Cl)cc1)C3)C(C)C2 (centres unmarked) [Example I-171]	90%	100%	100%	100%	100%	100%	100%	100%	100%	100%	–	–	–
Cc1ccc2c(c1)[C@H](Nc1nc3n(n1)CCN(C(=O)C1CC1)C3)CC2 [Example I-175]	100%	100%	100%	100%	100%	100%	100%	100%	100%	100%	–	–	–
Cc1ccc2c(c1)[C@H](Nc1nc3n(n1)CCN(C(=O)C1CC1)C3)CCC2 [Example I-182]	90%	100%	100%	100%	100%	100%	100%	100%	100%	100%	–	–	–
Cc1ccc2c(c1)[C@H](Nc1nc3n(n1)CCN(S(=O)(=O)C(C)C)C3)[C@@H](C)C2 [Example I-191]	100%	100%	100%	100%	100%	100%	100%	100%	100%	100%	–	–	–
Cc1ccc2c(c1)[C@H](Nc1nc3n(n1)CCN(S(C)(=O)=O)C3)CC2 [Example I-196]	100%	100%	100%	100%	100%	100%	100%	100%	100%	100%	–	–	–
Cc1ccc2c(c1)[C@H](Nc1nc3n(n1)CCN(S(=O)(=O)C(C)C)C3)CC2 [Example I-197]	90%	80%	100%	100%	100%	100%	80%	100%	100%	100%	–	–	–
Fc1ccc2c(c1)[C@H](Nc1nc3n(n1)CCCCS3)CCC2 [Example I-215]	100%	100%	100%	100%	100%	100%	100%	100%	100%	100%	–	–	–
Cc1ccc2c(c1)C(Nc1nc3n(n1)CCCS3(=O)=O)CC2 (centres unmarked) [Example I-238]	80%	90%	100%	100%	100%	100%	100%	100%	100%	100%	–	–	–
Cc1ccc2c(c1)C(Nc1nc3n(n1)CCCC[S+]3[O-])CCC2 (centres unmarked) [Example I-246]	100%	100%	100%	80%	100%	100%	100%	100%	100%	100%	–	–	–
Cc1ccc2c(c1)C(Nc1nc3n(n1)CCC(=O)N3CC1CC1)CCC2 (centres unmarked) [Example I-254]	80%	100%	100%	100%	100%	100%	100%	100%	100%	100%	–	–	–
CC(=O)N1CCCn2nc(NC3CCCc4ccc(C)cc43)nc21 (centres unmarked) [Example I-321]	–	100%	–	80%	100%	100%	90%	100%	100%	100%	100%	100%	100%
CC1CCc2ccccc2C1Nc1nc2n(n1)CCCCS2 (centres unmarked) [Example I-356]	100%	100%	100%	–	100%	100%	100%	100%	100%	100%	–	–	–
Cc1ccc2c(c1)[C@H](Nc1nc3n(n1)CCCCS3(=O)=O)CCO2 [Example I-381]	–	100%	100%	100%	100%	100%	100%	100%	100%	100%	–	–	–
